Reference: patent publication US8637474B2, “Receptor modulators exhibiting neuroprotective and memory enhancing activities” (The Hong Kong University of Science and Technology, priority 2007, dated 2014)
Entries after “also recorded” stand apart in the source; their conditions may differ.

Tests used:
[1] = system: rat primary cortical neurons; test: NMDA survival assay (LDH release), primary cortical neurons; assay type: cell-based; settings: NMDA 20 μM; for reduction of cell death compared to DA001: compounds in μg/ml, FIG. 13
Description: FIG. 5 DA001 protects against NMDA excitotoxicity in rat cortical neurons. Embryonic rat cortical neurons (11DIV) were treated with NMDA (20 μM) in the absence or presence of TCM samples (μg/ml) or memantine (μM). Memantine is a known NMDA antagonist. LDH release in the medium was measured after overnight incubation and cell cytotoxicity was calculated as a percentage when compared to the solvent control, DMSO.
FIG. 12. Derivatives of DA001 rescue the cortical neurons from NMDA excitotoxicity. Embryonic rat cortical neurons (11DIV) were treated with NMDA (20 μM) in the absence or presence of DA001 or its derivatives (10 or 30 μM); LDH release in the medium after overnight or 24 hours incubation was measured and cell death was calculated as a percentage in comparison to DMSO, the solvent control. Data are expressed as mean±s.e.m. *=P<0.05.
FIG. 13. DA002 and DA021, both derivatives of DA001, reduced NMDA-induced excitotoxicity. Embryonic rat cortical neurons (11DIV) were treated with NMDA (20 μM) in the absence or presence of DA002 or DA021 (μg/ml). LDH release in the medium after overnight incubation was measured and cell cytotoxicity was calculated as a percentage in comparison to DMSO, the solvent control.
DA001 (at 10 μg/ml) reduced cell death by more than 60% compared to the DMSO control. Compound A0178 and memantine were included as negative and positive controls, respectively.
Memantine is an FDA-approved NMDA antagonist used for clinical indications such as dementia in Alzheimer's disease. Dose-dependant assays were performed for each compound and based on the resulting dose response curve, the corresponding EC50 for each compound was determined.
NMDA survival assays were performed to measure the degree of protection provided to cortical neuronal cells when treated with the novel compounds (at 30 μM, except DA026 at 10 μM) prior to NMDA insult.
Compounds derived from DA001 were tested for their ability to inhibit NMDA-induced excitotoxicity. Primary rat cortical neurons were subjected to NMDA insults in the presence and absence of the novel derivatives.
Cortical neurons were pre-treated with DA001 and subsequently subjected to varying concentrations of NMDA. Survival assays were then conducted to determine the ability of DA001 to effectively protect neuronal cells from NMDA-induced excitotoxicity.
LDH release into the medium was then measured.
Primary cortical and hippocampal neurons were prepared from embryonic day 18 (E18) Sprague-Dawley rats. Neurons were plated on 24-well pate (TPP, Corning) at a density of 2×10^5 cells per well using Neurobasal medium (Invitrogen) supplemented with 2% B27 (Invitrogen). […] The cell death was assayed and quantified using the lactate dehydrogenase release assay (Roche) after 24 hours. […]

[2] = system: rat primary hippocampal neurons; test: NMDA survival assay (LDH release), primary hippocampal neurons; assay type: cell-based; settings: DA001 30 μM, NMDA 20 μM
Description: FIG. 6. DA001 protects against NMDA excitotoxicity in rat primary hippocampal neurons. Embryonic rat hippocampal neurons (11 DIV) were treated with NMDA (20 μM) in the absence or presence of DA001 (μM) or memantine (μM). LDH release in the medium was measured after overnight incubation and cell cytotoxicity was calculated in percentage when compared to solvent control (DMSO).
DA001 (at 30 μM) reduced cell death by ˜80%.
Primary cortical and hippocampal neurons were prepared from embryonic day 18 (E18) Sprague-Dawley rats. Neurons were plated on 24-well pate (TPP, Corning) at a density of 2×10^5 cells per well using Neurobasal medium (Invitrogen) supplemented with 2% B27 (Invitrogen). Neurons at 11-12 days in vitro (12DIV) were subjected to drug treatment. Neurons were pretreated with the test compound for 2 hours prior to NMDA treatment. 0.1 μM(+)-MK-801 Hydrogen Maleate (Sigma) was added as a positive control. Briefly, the neurons were rinsed with Locke's solution (5 mM potassium chloride, 128 mM sodium chloride, 2.7 mM calcium chloride, 1 mM di-sodium hydrogen orthophosphate, 5 mM HEPES and 10 mM glucose in Milli-Q water) without Mg^2+, and incubated with addition of glycine (10 μM) for 15 minutes. […] The cell death was assayed and quantified using the lactate dehydrogenase release assay (Roche) after 24 hours.

[3] = system: primary cortical neurons; test: Cell toxicity test (LDH) on primary neurons; assay type: cell-based; settings: 24 hours, all concentrations, maximum dose 70 μM
Description: FIG. 8. […] Primary cortical neurons were treated with different concentrations of DA001 for 24 hours.
This was performed to study the effects of the invention on primary neurons. Cortical neurons isolated from embryonic day 18 Spraque-Dawley rats were cultured in Neurobasal medium supplemented with 2% B27 and penicillin/streptomycin solution (Invitrogen). Primary neurons of 7 days in culture (7 DIV) were treated with various concentrations of the invention in the absence of B27 for 24 hours. Lactate dehydrogenases (LDH) was released into the medium and measured and calculated as percentage compared to 1% Triton X-100.

[4] = system: BDNF expression; test: Real-time quantitative PCR, BDNF expression following NMDA treatment; assay type: cell-based, rat
Description: FIG. 20 illustrates that DA001 induces BDNF and NT-3 expression but not Bcl-2 or c-fos following NMDA treatment.
Cortical neurons were pre-treated with DA001 prior to being subjected to NMDA insults, after which total RNA was extracted at different time intervals after treatment. There was a 5-fold increase in BDNF expression after a 6 hour incubation period. BDNF expression remained ˜3-4 fold over the control (DMSO) 12-24 hours after treatment with DA001.
Total RNA was extracted followed by cDNA synthesis. Gene expression was normalized against home gene, hypoxanthine phosphoribosyltransferase 1 (HPRT1) and glyceraldehyde 3-phosphate dehydrogenase (GAPDH). Relative change in gene expression induced by DA001+H2O and DA001+NMDA was compared with the controls, DMSO+H2O and DMSO+NMDA, respectively.
Cortical neurons were pre-treated with DA001 after which the cells were subjected to NMDA insult. The expression of BDNF was measured at three different time intervals and compared to that of NT-3, Bcl-2 and c-fos. DA001 induced BDNF and NT-3 expression but not bcl-2 or c-fos under the same conditions. […]
Cortical neurons of 11DIV-12DIV were pre-incubated with DA001 or DMSO for 24hours. […] Real-time Quantitative PCR was performed using Power SYBR Green PCR Master Mix (Applied Biosystems) on the M×3000P Real-Time PCR System (Stratagene). […]

[5] = molecular target: melanocortin-1 (MC1) receptor (Homo sapiens, UniProt Q01726); test: Radioligand competition binding assay, MC1
Description: (§1) DA001 was evaluated against 109 receptor binding assays and 17 enzyme assays, comprising of selective, central and peripheral therapeutically-relevant targets. Radioligand competition assays were conducted whereby DA001 was tested at one concentration (10 μM) in duplicate. […] It could compete with the radioligand [^125I-NDP-alpha-melanocyte-stimulating hormone (α-MSH)] binding for MC1 and MC4 but not MC3 and MC5 nor the related family, the melanin concentrating hormone receptors (MCH1 and MCH2).
(§2) To determine the IC50 for DA001 to inhibit α-MSH binding on MC1 and MC4 receptor, the compound was further characterized by a dose-dependent study. DA001 was evaluated with 8 concentrations on MC1 and MC4 receptor binding assays.
(§3) The specific ligand binding to the receptors is defined as the difference between the total binding and the nonspecific binding determined in the presence of an excess of unlabelled ligand. The results are expressed as a percent of control specific binding [(measured specific binding/control specific binding)×100] and as a percent inhibition of control specific binding {100−[(measured specific binding/control specific binding)×100]} obtained in the presence of DA001. The IC50 values (concentration causing a half-maximal inhibition of control specific binding) and Hill coefficients (nH) were determined by non-linear regression analysis of the competition curves generated with mean replicate values using Hill equation curve fitting (Y=D+[(A−D)/(1+(C/C50)nH)], where Y=specific binding, D=minimum specific binding, A=maximum specific binding, C=compound concentration, C50=IC50, and nH=slope factor). This analysis was performed using a software developed at Cerep (Hill software) and validated by comparison with data generated by the commercial software SigmaPlot® 4.0 for Windows® (© 1997 by SPSS Inc.).

[6] = molecular target: MC3 (Homo sapiens, UniProt P41968); test: Radioligand competition binding assay, MC3; settings: MC3, DA001 10 μM, duplicate; read-out: % inhibition of control specific binding
Description: as §1

[7] = molecular target: melanocortin-4 (MC4) receptor (Homo sapiens, UniProt P32245); test: Radioligand competition binding assay, MC4
Description: as §1, §2, §3

[8] = molecular target: MC5 (Homo sapiens, UniProt P33032); test: Radioligand competition binding assay, MC5; settings: MC5, DA001 10 μM, duplicate; read-out: % inhibition of control specific binding
Description: as §1

[9] = molecular target: melanin concentrating hormone receptor MCH1 (Homo sapiens, UniProt Q99705); test: Radioligand competition binding assay, MCH1; settings: MCH1, DA001 10 μM, duplicate; read-out: % inhibition of control specific binding
Description: as §1

[10] = molecular target: melanin concentrating hormone receptor MCH2 (Homo sapiens, UniProt Q969V1); test: Radioligand competition binding assay, MCH2; settings: MCH2, DA001 10 μM, duplicate; read-out: % inhibition of control specific binding
Description: as §1

[11] = molecular target: melatonin (MT1) receptor (Homo sapiens, UniProt P48039); test: Radioligand competition binding assay, MT1; settings: MT1, DA001 10 μM, duplicate; read-out: % inhibition of control specific binding
Description: as §1

Chain of melanocortin-1 (MC1) receptor (Q01726 whole entry): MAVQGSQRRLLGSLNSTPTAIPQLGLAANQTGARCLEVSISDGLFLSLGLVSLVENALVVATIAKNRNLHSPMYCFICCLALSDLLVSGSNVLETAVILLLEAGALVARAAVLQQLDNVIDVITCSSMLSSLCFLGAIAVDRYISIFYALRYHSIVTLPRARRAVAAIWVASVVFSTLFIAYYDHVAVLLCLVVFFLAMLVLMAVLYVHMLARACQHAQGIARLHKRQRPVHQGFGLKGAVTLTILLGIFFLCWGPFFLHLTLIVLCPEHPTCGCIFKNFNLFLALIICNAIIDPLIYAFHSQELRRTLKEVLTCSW
Chain of melanocortin-4 (MC4) receptor (P32245 whole entry): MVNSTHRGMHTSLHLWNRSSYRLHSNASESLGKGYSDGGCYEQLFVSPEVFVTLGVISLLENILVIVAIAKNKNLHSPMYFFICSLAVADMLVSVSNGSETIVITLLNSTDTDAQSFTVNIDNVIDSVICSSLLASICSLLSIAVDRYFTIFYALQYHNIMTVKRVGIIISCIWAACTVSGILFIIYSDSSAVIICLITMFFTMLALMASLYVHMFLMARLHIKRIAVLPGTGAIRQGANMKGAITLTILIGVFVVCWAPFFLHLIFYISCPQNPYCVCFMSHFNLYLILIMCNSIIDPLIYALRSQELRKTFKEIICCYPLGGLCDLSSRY
Chain of MC5 (P33032 whole entry): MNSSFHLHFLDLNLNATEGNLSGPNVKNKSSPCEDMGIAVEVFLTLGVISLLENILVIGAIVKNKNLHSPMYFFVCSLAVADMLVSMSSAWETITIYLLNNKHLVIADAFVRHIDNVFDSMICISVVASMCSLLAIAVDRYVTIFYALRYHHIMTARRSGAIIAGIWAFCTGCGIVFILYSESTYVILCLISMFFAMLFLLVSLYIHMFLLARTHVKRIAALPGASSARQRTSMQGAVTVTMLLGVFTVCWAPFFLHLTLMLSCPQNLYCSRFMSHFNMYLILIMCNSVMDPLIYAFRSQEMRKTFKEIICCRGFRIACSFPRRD
Chain of melatonin (MT1) receptor (P48039 whole entry): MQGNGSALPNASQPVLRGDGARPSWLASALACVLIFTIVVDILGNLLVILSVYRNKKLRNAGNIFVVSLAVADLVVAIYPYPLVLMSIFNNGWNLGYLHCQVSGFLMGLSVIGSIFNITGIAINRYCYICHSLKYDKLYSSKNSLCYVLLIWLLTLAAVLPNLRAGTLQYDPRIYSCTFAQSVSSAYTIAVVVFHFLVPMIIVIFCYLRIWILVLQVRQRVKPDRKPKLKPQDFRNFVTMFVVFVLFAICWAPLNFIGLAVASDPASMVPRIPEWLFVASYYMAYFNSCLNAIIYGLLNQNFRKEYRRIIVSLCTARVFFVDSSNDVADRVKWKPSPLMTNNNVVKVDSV
Chain of melanin concentrating hormone receptor MCH2 (Q969V1 whole entry): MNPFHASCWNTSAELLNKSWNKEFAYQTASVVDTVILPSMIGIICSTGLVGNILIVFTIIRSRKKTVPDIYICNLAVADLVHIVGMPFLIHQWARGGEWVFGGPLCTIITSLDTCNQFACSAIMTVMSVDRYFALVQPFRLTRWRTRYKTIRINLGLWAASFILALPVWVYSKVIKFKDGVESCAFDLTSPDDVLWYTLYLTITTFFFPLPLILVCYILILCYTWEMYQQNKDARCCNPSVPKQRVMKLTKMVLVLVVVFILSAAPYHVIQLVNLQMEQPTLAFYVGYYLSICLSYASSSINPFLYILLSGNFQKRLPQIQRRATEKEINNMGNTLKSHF
Chain of melanin concentrating hormone receptor MCH1 (Q99705 whole entry): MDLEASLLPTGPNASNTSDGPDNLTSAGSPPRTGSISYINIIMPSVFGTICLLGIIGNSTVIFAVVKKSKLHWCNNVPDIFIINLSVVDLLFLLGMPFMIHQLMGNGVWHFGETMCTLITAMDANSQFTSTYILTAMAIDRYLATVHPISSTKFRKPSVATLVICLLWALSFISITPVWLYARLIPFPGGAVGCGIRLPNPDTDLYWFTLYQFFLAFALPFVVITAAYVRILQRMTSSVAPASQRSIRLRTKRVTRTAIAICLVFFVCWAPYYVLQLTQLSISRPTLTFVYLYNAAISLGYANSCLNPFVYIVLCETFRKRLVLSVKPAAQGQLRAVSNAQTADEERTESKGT
Chain of MC3 (P41968 whole entry): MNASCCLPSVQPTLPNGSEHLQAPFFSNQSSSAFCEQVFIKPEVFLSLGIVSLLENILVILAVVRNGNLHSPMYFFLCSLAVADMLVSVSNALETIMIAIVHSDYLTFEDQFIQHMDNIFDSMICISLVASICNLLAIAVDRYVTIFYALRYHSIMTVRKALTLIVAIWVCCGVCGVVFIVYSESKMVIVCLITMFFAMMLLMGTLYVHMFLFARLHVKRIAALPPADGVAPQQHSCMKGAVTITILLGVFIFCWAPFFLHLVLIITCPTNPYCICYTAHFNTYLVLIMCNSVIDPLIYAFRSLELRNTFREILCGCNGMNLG

| Compound | reduction of cell death compared to DMSO control ([1]; DA001 10 μg/ml, LDH release) | reduction of cell death [2] | cytotoxicity / cell death (LDH release) [3] | BDNF expression over the control (DMSO) ([4]; 12-24 hours after treatment) | increase in BDNF expression ([4]; after a 6 hour incubation period, DA001 pre-treatment 24 hrs, NMDA 20 μM) | Ki ([5]; MC1) | IC50 ([5]; MC1, 8 concentrations, α-MSH binding) | inhibition at 10 µM ([5]; MC1, DA001 10 μM, duplicate, 125I-NDP-α-MSH, read-out: % inhibition of control specific binding) | inhibition at 10 µM [6] | Ki ([7]; MC4) | IC50 ([7]; MC4, 8 concentrations, α-MSH binding) | inhibition at 10 µM ([7]; MC4, DA001 10 μM, duplicate, 125I-NDP-α-MSH, read-out: % inhibition of control specific binding) | inhibition at 10 µM [8] | inhibition at 10 µM [9] | inhibition at 10 µM [10] | inhibition at 10 µM [11] | reduction of cell death compared to DA001 [1] | protection of cortical neurons against NMDA insult (cell death) ([1]; derivatives at 30 μM (DA026 at 10 μM), FIG. 12) |
| --- | --- | --- | --- | --- | --- | --- | --- | --- | --- | --- | --- | --- | --- | --- | --- | --- | --- | --- |
| C=C(C)[C@@H]1CC[C@]2(C(=O)O)CC[C@]3(C)C(CC[C@@H]4[C@@]5(C)CC[C@H](O[C@@H]6OC[C@H](O)[C@H](O)[C@H]6O[C@@H]6O[C@@H](C)[C@H](O)[C@@H](O)[C@H]6O)[C@@](C)(CO)[C@@H]5CC[C@]43C)[C@@H]12 (stereo partly drawn) [DA001, 3-O-[α-L-rhamnopyranosyl-(1→2)-α-L-arabinopyranosyl]-3,23-dihydroxy-20(29)-lupen-28-oic acid] | more than 60% | ~80% | No obvious cell death was observed at all doses examined; also recorded: did not induce cytotoxicity and cell death at all concentrations examined; also recorded: no significant toxicity was observed | 3-4 fold | 5 fold | 5.2 µM | 10 µM | 64% | 12% | 6.3 µM | 6.8 µM | 59% | 11% | -9% | -12% | 28% |  |  |
| C=C(C)[C@@H]1CC[C@]2(C(=O)O)CC[C@]3(C)C(CC[C@@H]4[C@@]5(C)CC[C@H](O)[C@@](C)(CO)[C@@H]5CC[C@]43C)[C@@H]12 (stereo partly shown) [DA002, 3,23-Dihydroxy-20(29)-lupen-28-oic acid] |  |  |  |  |  |  |  |  |  |  |  |  |  |  |  |  | reduced cell death prominently compared to DA001 |  |
| C=C(C)C1CCC2(C(N)=O)CCC3(C)C(CCC4C5(C)CCC(O)C(C)(CO)C5CCC43C)C12 (stereo not shown) [DA021, 3,23-Dihydroxy-20(29)-lupen-28-iminol] |  |  |  |  |  |  |  |  |  |  |  |  |  |  |  |  | reduced cell death prominently compared to DA001 | showed promising protective effect |
